# Test system: primary cortical neurons transfected with plasmids expressing mHTT (Htt-N586-82Q)
# Experiment: mHTT-induced toxicity in transfected primary cortical neurons (HD cell model)
# Type: cell-based
# Settings: concentrations 0.01-10 μM
# Method: Toward testing the hypothesis that selective modulators of σ2R/TMEM97 have neuroprotective attributes in Huntington's disease, a small panel of compounds were evaluated with differing affinities and selectivities for σ2R/TMEM97 in a primary neuron model of HD. […] In the present disclosure, these compounds are tested in an HD cell model to assess the effects of these compounds upon mHTT-induced neuronal toxicity. Briefly, primary neurons were co-transfected with plasmid expression of a 586 N-terminal Htt polypeptide with either normal Q (Htt-N586-22Q) or expanded Q (Htt-N586-82Q) repeats and green fluorescent protein (GFP).
# Stock solutions of σ2R/TMEM97 modulators were prepared by dissolving the compound in DMSO to a concentration of 10 mM. For the in vitro assays, the stock solution was diluted with culture medium (1:1000) to a working concentration of 10 μM of σ2R/TMEM97 modulator. Serial dilutions were then performed using culture medium to prepare other concentrations of the modulator. The final DMSO concentration is less than 0.1%. The vehicle group was performed using 0.1% DMSO in culture medium.
# To assess the possible neuroprotective effects of selective σ2R/TMEM97 modulators in neurodegenerative processes associated with HD, a cell model was used that has been previously described (Arbez et al, 2017).
row,SMILES,neuroprotection against mHTT-induced neuronal toxicity
1,"FC(F)(F)c1ccc(-c2ccc3c(c2)C2CC3CCCN2C2CCCCC2)cc1 (racemic) [BEA-1687, (±)-2-Cyclohexyl-9-(4-(trifluoromethyl)phenyl)-1,2,3,4,5,6-hexahydro-1,6-methanobenzo[c]azocine]",significant neuroprotection in a dose dependent fashion
2,"O=C(C1CCN(CCO)CC1)N1CCC2CC1c1cc(-c3ccc(C(F)(F)F)cc3)ccc12 (racemic) [EES-1686, (±)-(1-(2-Hydroxyethyl)piperidin-4-yl)(8-(4-(trifluoromethyl)phenyl)-1,3,4,5-tetrahydro-2H-1,5-methanobenzo[c]azepin-2-yl)methanone]",significant neuroprotection in a dose dependent fashion
3,"CN1CCN(c2ccc3c(c2)C2CC3CCN2C(=O)OCc2ccc(F)cc2)CC1 (racemic) [AMA-1127, (±)-4-Fluorobenzyl-8-(4-methylpiperazin-1-yl)-1,3,4,5-tetrahydro-2H-1,5-methanobenzo[c]azepine-2-carboxylate]",significant neuroprotection in a dose dependent fashion

# Same assay, conditions: lowest of the series
row,SMILES,concentration providing significant neuroprotection
1,"O=C(C1CCN(CCO)CC1)N1CCC2CC1c1cc(-c3ccc(C(F)(F)F)cc3)ccc12 (racemic) [EES-1686, (±)-(1-(2-Hydroxyethyl)piperidin-4-yl)(8-(4-(trifluoromethyl)phenyl)-1,3,4,5-tetrahydro-2H-1,5-methanobenzo[c]azepin-2-yl)methanone]",10 nM

# Same assay, conditions: primary cortical neurons
row,SMILES,intrinsic toxicity
1,"FC(F)(F)c1ccc(-c2ccc3c(c2)C2CC3CCCN2C2CCCCC2)cc1 (racemic) [BEA-1687, (±)-2-Cyclohexyl-9-(4-(trifluoromethyl)phenyl)-1,2,3,4,5,6-hexahydro-1,6-methanobenzo[c]azocine]",None of these compounds appear to exhibit any intrinsic toxicity
2,"O=C(C1CCN(CCO)CC1)N1CCC2CC1c1cc(-c3ccc(C(F)(F)F)cc3)ccc12 (racemic) [EES-1686, (±)-(1-(2-Hydroxyethyl)piperidin-4-yl)(8-(4-(trifluoromethyl)phenyl)-1,3,4,5-tetrahydro-2H-1,5-methanobenzo[c]azepin-2-yl)methanone]",None of these compounds appear to exhibit any intrinsic toxicity
3,"CN1CCN(c2ccc3c(c2)C2CC3CCN2C(=O)OCc2ccc(F)cc2)CC1 (racemic) [AMA-1127, (±)-4-Fluorobenzyl-8-(4-methylpiperazin-1-yl)-1,3,4,5-tetrahydro-2H-1,5-methanobenzo[c]azepine-2-carboxylate]",None of these compounds appear to exhibit any intrinsic toxicity

# Biological target: T1, σ2R/TMEM97 (Homo sapiens, UniProt Q5BJF2)
# T1 sequence (Q5BJF2 whole entry, looked up): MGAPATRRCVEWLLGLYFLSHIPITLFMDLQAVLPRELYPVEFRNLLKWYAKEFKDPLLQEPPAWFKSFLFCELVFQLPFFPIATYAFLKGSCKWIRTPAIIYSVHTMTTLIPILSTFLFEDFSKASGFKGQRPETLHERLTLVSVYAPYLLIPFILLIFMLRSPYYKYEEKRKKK
# Experiment: not given
# Settings: not given
row,SMILES,Ki
1,CC(=O)N[C@H]1CC[C@H](N2CCC3CC2c2cc(-c4cccc(C(F)(F)F)c4)ccc23)CC1 (stereo partly shown),4.1 nM
2,O=C(C1CCNCC1)N1CCC2CC1c1cc(-c3cccc(C(F)(F)F)c3)ccc12 (stereo not shown),5.5 nM
3,CC(C)N1CCCC2CC1c1cc(-c3ccc(C(F)(F)F)cc3)ccc12 (stereo not shown),87 nM
4,CN1CCC(C(=O)N2CCC3CC2c2cc(-c4cccc(C(F)(F)F)c4)ccc23)CC1 (stereo not shown),2.3 nM
5,CS(=O)(=O)c1ccc(-c2ccc3c(c2)C2C[C@H]3CCN2CCCO)cc1,1180 nM
6,O=C(C1CCNCC1)N1CCCC2CC1c1cc(-c3ccc(C(F)(F)F)cc3)ccc12 (stereo not shown),52.5 nM
7,CN(C)[C@H]1CC[C@@H](N2CCC3C[C@H]2c2cc(-c4cccc(C(F)(F)F)c4)ccc23)CC1,9.5 nM
8,O=C(C1CN(CCO)C1)N1CCC2C[C@H]1c1cc(-c3ccc(C(F)(F)F)cc3)ccc12,15.3 nM
9,O=C(C1CCNCC1)N1CC[C@H]2CC1c1cc(-c3cccc(OC(F)(F)F)c3)ccc12,37.1 nM
10,N[C@H]1CC[C@H](N2CCC3CC2c2cc(-c4cccc(C(F)(F)F)c4)ccc23)CC1 (stereo partly shown),70.5 nM
11,CCCN1CCC(C(=O)N2CCC3CC2c2cc(-c4ccc(C(F)(F)F)cc4)ccc23)CC1 (stereo not shown),1.3 nM
12,CS(=O)(=O)c1ccc(-c2ccc3c(c2)[C@@H]2CC3CCN2C(=O)C2CCN(CCO)CC2)cc1,834 nM
13,COc1ccc(-c2ccc3c(c2)C2CC3CCCN2C2CCCC2)cc1 (stereo not shown),194 nM
14,OC1CCC(N2CCCC3CC2c2cc(-c4ccc(C(F)(F)F)cc4)ccc23)CC1 (stereo not shown),39 nM
15,OCCCN1CC[C@@H]2CC1c1cc(-c3cccc(OC(F)(F)F)c3)ccc12,48.3 nM
16,OCCCN1CC[C@@H]2CC1c1cc(-c3ccnc(F)c3)ccc12,802 nM
17,O=C(C1CNC1)N1CCC2CC1c1cc(-c3cccc(C(F)(F)F)c3)ccc12 (stereo not shown),16 nM
18,CS(=O)(=O)c1cccc(-c2ccc3c(c2)C2C[C@H]3CCN2CCCO)c1,1850 nM
19,CN1CCC(C(=O)N2CCC3C[C@@H]2c2cc(-c4ccc(C(F)(F)F)cc4)ccc23)CC1,35.1 nM
20,CS(=O)(=O)c1cccc(-c2ccc3c(c2)C2C[C@H]3CCN2C(=O)C2CCN(CCO)CC2)c1,277 nM
21,FC(F)(F)c1ccccc1-c1ccc2c(c1)C1CC2CCCN1C1CCCC1 (stereo not shown),549 nM
22,N[C@H]1CC[C@@H](N2CCC3CC2c2cc(-c4cccc(C(F)(F)F)c4)ccc23)CC1 (stereo partly shown),7.9 nM
23,FC(F)(F)c1cccc(-c2ccc3c(c2)C2CC3CCCN2C2CCCC2)c1 (stereo not shown),62 nM
24,CN(C)CCC(=O)N1CCC2CC1c1cc(-c3cccc(C(F)(F)F)c3)ccc12 (stereo not shown),8.7 nM
25,CNCCC(=O)N1CCC2CC1c1cc(-c3cccc(C(F)(F)F)c3)ccc12 (stereo not shown),4.9 nM
26,FC(F)(F)c1ccc(-c2ccc3c(c2)C2CC3CCCN2C2CCCCC2)cc1 (stereo not shown),25 nM
27,COCCN1CC(C(=O)N2CCC3C[C@H]2c2cc(-c4ccc(C(F)(F)F)cc4)ccc23)C1,17.6 nM
28,COCCN1CCC(C(=O)N2CCC3C[C@H]2c2cc(-c4ccc(C(F)(F)F)cc4)ccc23)CC1,10.3 nM

row,SMILES,Ki
1,OC(CF)CN1CCC2CC1c1cc(-c3ccc(C(F)(F)F)cc3)ccc12 (stereo not shown),34 nM
2,O=C(C1CCN(CCO)CC1)N1CCC2CC1c1cc(-c3cccc(C(F)(F)F)c3)ccc12 (stereo not shown),32.3 nM
3,N#Cc1ccc(-c2ccc3c(c2)C2CC3CCCN2C2CCCC2)cc1 (stereo not shown),119 nM
4,CCCN1CCC2CC1c1cc(-c3cccc(C(F)(F)F)c3)ccc12 (stereo not shown),112 nM
5,N[C@H]1CC[C@@H](N2CCC3C[C@H]2c2cc(-c4cccc(C(F)(F)F)c4)ccc23)CC1,30.8 nM
6,Fc1ccc(-c2ccc3c(c2)C2CC3CCCN2C2CCCC2)cc1 (stereo not shown),153 nM
7,O=C(N1CC2CC(C1)N2CCO)N1CCC2C[C@H]1c1cc(-c3ccc(C(F)(F)F)cc3)ccc12,62.9 nM
8,CN1CCC(C(=O)N2CCC3CC2c2cc(-c4cccc(OC(F)(F)F)c4)ccc23)CC1 (stereo not shown),30.4 nM
9,FC(F)(F)c1cccc(-c2ccc3c(c2)C2CC3CCN2)c1 (stereo not shown),57 nM
10,OCCCN1CCC2CC1c1cc(-c3ccc(C(F)(F)F)cc3)ccc12 (stereo not shown),11 nM
11,O=C(N1CCN(CCO)CC1)N1CCC2C[C@H]1c1cc(-c3ccc(C(F)(F)F)cc3)ccc12,955 nM
12,O=C(C1CCN(CCCO)CC1)N1CC[C@@H]2CC1c1cc(-c3cccc(OC(F)(F)F)c3)ccc12,264 nM
13,O=C(C1CCN(CCCO)CC1)N1CCC2C[C@H]1c1cc(-c3ccc(C(F)(F)F)cc3)ccc12,7.7 nM
14,FC(F)(F)c1ccc(-c2ccc3c(c2)C2CC3CCN2C2CCC2)cc1 (stereo not shown),213 nM
15,O=C(N1CC2(CN(CCO)C2)C1)N1CCC2C[C@H]1c1cc(-c3ccc(C(F)(F)F)cc3)ccc12,441 nM
16,Cc1ccc(-c2ccc3c(c2)C2CC3CCCN2C2CCCC2)cc1 (stereo not shown),187 nM
17,O=C(C1CCNCC1)N1CCC2CC1c1cc(-c3ccc(C(F)(F)F)cc3)ccc12 (stereo not shown),6.8 nM
18,FC(F)(F)c1ccc(-c2ccc3c(c2)C2CC3CCCN2C2CCCC2)cn1 (stereo not shown),336 nM
19,FC(F)(F)Oc1cccc(-c2ccc3c(c2)C2CC3CCN2C2CCCCC2)c1 (stereo not shown),79 nM
20,O=C(N1CCC2(CC1)CN(CCO)C2)N1CCC2C[C@H]1c1cc(-c3ccc(C(F)(F)F)cc3)ccc12,91.6 nM
21,O=C(C1CCNCC1)N1CC[C@@H]2CC1c1cc(-c3cccc(OC(F)(F)F)c3)ccc12,35.4 nM
22,FC(F)(F)c1ccc(-c2ccc3c(c2)C2CC3CCCN2CC2CCCC2)cc1 (stereo not shown),99 nM
23,FC(F)(F)c1ccc(-c2ccc3c(c2)C2CC3CCN2C2CCCC2)cc1 (stereo not shown),82.3 nM
24,CN(CCO)CCC(=O)N1CCC2CC1c1cc(-c3cccc(C(F)(F)F)c3)ccc12 (stereo not shown),4.3 nM
25,OCCN1CCC2CC1c1cc(-c3ccc(C(F)(F)F)cc3)ccc12 (stereo not shown),32 nM
26,O=C(C1CCN(CCO)CC1)N1CCC2C[C@H]1c1cc(-c3ccc(C(F)(F)F)cc3)ccc12,13.6 nM
27,FC(F)(F)c1ccc(-c2ccc3c(c2)C2CC3CCCN2)cc1 (stereo not shown),21 nM

# Biological target: T1, σ2R/TMEM97
# Experiment: Receptor binding assay (PDSP), human σ2R/TMEM97, [3H]-ditolylguanidine competition
# Settings: human σ2R/TMEM97
# Method: (§1) Ki values are calculated from best-fit IC50 determinations performed in triplicate.
# (§2) The binding affinities (Ki) of all synthetic compounds for σ2R/TMEM97 and σ1R were determined at the Psychoactive Drug Screening Program. Prior to the identification of σ2R as TMEM97, Ki values were measured using σ2R sourced from rat PC12 cells and σ1R sourced from guinea pig brain, but subsequently σ2R/TMEM97 and σ1R binding isotherms were determined using human protein obtained by transfection in HEK293T cells.
row,SMILES,"affinity (Ki) for σ2R/TMEM97, in words"
1,"FC(F)(F)c1ccc(-c2ccc3c(c2)C2CC3CCCN2C2CCCCC2)cc1 (racemic) [BEA-1687, (±)-2-Cyclohexyl-9-(4-(trifluoromethyl)phenyl)-1,2,3,4,5,6-hexahydro-1,6-methanobenzo[c]azocine]",high affinity
2,"CCCN1CCC(C(=O)N2CCC3CC2c2cc(-c4ccc(C(F)(F)F)cc4)ccc23)CC1 (racemic) [JJS-1678, (±)-(1-Propylpiperidin-4-yl)(8-(4-(trifluoromethyl)phenyl)-1,3,4,5-tetrahydro-2H-1,5-methanobenzo[c]azepin-2-yl)methanone]",high affinity
3,"O=C(C1CCN(CCO)CC1)N1CCC2CC1c1cc(-c3ccc(C(F)(F)F)cc3)ccc12 (racemic) [EES-1686, (±)-(1-(2-Hydroxyethyl)piperidin-4-yl)(8-(4-(trifluoromethyl)phenyl)-1,3,4,5-tetrahydro-2H-1,5-methanobenzo[c]azepin-2-yl)methanone]",high affinity

# Same assay, conditions: human σ2R/TMEM97 vs human σ1R
row,SMILES,"selectivity for σ2R/TMEM97 vs σ1R, in words"
1,"FC(F)(F)c1ccc(-c2ccc3c(c2)C2CC3CCCN2C2CCCCC2)cc1 (racemic) [BEA-1687, (±)-2-Cyclohexyl-9-(4-(trifluoromethyl)phenyl)-1,2,3,4,5,6-hexahydro-1,6-methanobenzo[c]azocine]",good
2,"CCCN1CCC(C(=O)N2CCC3CC2c2cc(-c4ccc(C(F)(F)F)cc4)ccc23)CC1 (racemic) [JJS-1678, (±)-(1-Propylpiperidin-4-yl)(8-(4-(trifluoromethyl)phenyl)-1,3,4,5-tetrahydro-2H-1,5-methanobenzo[c]azepin-2-yl)methanone]",good
3,"O=C(C1CCN(CCO)CC1)N1CCC2CC1c1cc(-c3ccc(C(F)(F)F)cc3)ccc12 (racemic) [EES-1686, (±)-(1-(2-Hydroxyethyl)piperidin-4-yl)(8-(4-(trifluoromethyl)phenyl)-1,3,4,5-tetrahydro-2H-1,5-methanobenzo[c]azepin-2-yl)methanone]",good

# Biological target: σ2R/TMEM97 (Rattus norvegicus (Rat), UniProt Q5U3Y7)
# Sequence (Q5U3Y7 whole entry): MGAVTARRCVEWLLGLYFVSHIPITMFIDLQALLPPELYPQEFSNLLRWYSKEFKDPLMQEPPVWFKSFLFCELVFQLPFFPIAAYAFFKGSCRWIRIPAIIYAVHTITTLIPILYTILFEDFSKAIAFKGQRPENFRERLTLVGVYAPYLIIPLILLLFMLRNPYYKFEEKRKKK
# Experiment: Receptor binding assay (PDSP), rat σ2R/TMEM97 (PC12 cells), [3H]-ditolylguanidine competition
# Settings: rat σ2R/TMEM97
# Method: as §1, §2
row,SMILES,"affinity (Ki) for σ2R/TMEM97, in words"
1,"CN1CCN(c2ccc3c(c2)C2CC3CCN2C(=O)OCc2ccc(F)cc2)CC1 (racemic) [AMA-1127, (±)-4-Fluorobenzyl-8-(4-methylpiperazin-1-yl)-1,3,4,5-tetrahydro-2H-1,5-methanobenzo[c]azepine-2-carboxylate]",high affinity

# Same assay, conditions: rat σ2R/TMEM97 vs guinea pig σ1R
row,SMILES,"selectivity for σ2R/TMEM97 vs σ1R, in words"
1,"CN1CCN(c2ccc3c(c2)C2CC3CCN2C(=O)OCc2ccc(F)cc2)CC1 (racemic) [AMA-1127, (±)-4-Fluorobenzyl-8-(4-methylpiperazin-1-yl)-1,3,4,5-tetrahydro-2H-1,5-methanobenzo[c]azepine-2-carboxylate]",good selectivity
